Measurements published in ChEMBL document CHEMBL3994641, “Design, synthesis, and cytotoxicity of stabilized mycolactone analogs” (Bioorg Med Chem Lett, 2017).

What was measured:
[1] = Stability of the compound in 0.1 M HCl in MeOH at 0.5 mg after 2 hrs by 1H-NMR spectroscopy; format: physicochemical
[2] = Drug metabolism assessed as initial E/Zdouble-bond isomerization followed by photocyclization in acetone irradiated with UV light at 1 mg after 2 to 72 hrs by 1H-NMR spectroscopy; format: physicochemical
[3] = Drug metabolism assessed as compound decomposition in 0.1 M HCl in MeOH at 0.5 mg after 8 hrs by 1H-NMR spectroscopy; format: physicochemical; settings: read-out: Drug metabolism
[4] = Stability of the compound in 0.1 M NaOH in MeOH at 0.5 mg after 2 hrs by 1H-NMR spectroscopy; format: physicochemical
[5] = Drug metabolism assessed as compound decomposition in 0.1 M NaOH in MeOH at 0.5 mg after 14 hrs by 1H-NMR spectroscopy; format: physicochemical; settings: read-out: Drug metabolism
[6] = Thermal stability of the compound in acetone under sunlight at 60 degreeC after 1 day; format: physicochemical; settings: 24 h
[7] = Thermal stability of the compound in acetone under sunlight at 60 degreeC after 10 days; format: physicochemical; settings: 240 h
HEK293 = assay: Cytotoxicity against human HEK293 cells after 72 hrs by CellTiter blue staining based microscopic method; format: cell-based; settings: HEK293, 72 h
A549 = assay: Cytotoxicity against human A549 cells after 72 hrs by CellTiter blue staining based microscopic method; format: functional, cell-based; settings: A549, 72 h
LOX IMVI = assay: Cytotoxicity against human LOXIMVI cells after 72 hrs by CellTiter blue staining based microscopic method; format: functional, cell-based
L929 = assay: Cytotoxicity against mouse L929 cells after 72 hrs by CellTiter blue staining based microscopic method; format: cell-based; settings: L929, 72 h
[8] = Stability of the compound in DMSO/EtOH at -20 degreeC assessed as decomposition up to 1 month; format: physicochemical
[9] = Drug metabolism assessed as compound decomposition in neat at room temperature up to 10 days; format: physicochemical; settings: read-out: Drug metabolism
[10] = Drug metabolism assessed as compound decomposition in DMSO/EtOH at -20 degreeC after 3 years; format: physicochemical; settings: read-out: Drug metabolism
[11] = Solubility of the compound in water; format: physicochemical; settings: buffer
[12] = Solubility of the compound in water/0.1% Triton-X-100/NP-40; format: physicochemical; settings: buffer
[13] = Drug metabolism assessed as E/Z double-bond isomerization by measuring delta4',5'-Z and delta4',5'-E isomers in acetone under sunlight at 60 degreeC after 1 day; format: physicochemical; settings: 24 h
[14] = Drug metabolism assessed as E/Z double-bond isomerization by measuring delta4',5'-Z and delta4',5'-E isomers in acetone under sunlight at 60 degreeC after 10 days; format: physicochemical; settings: 240 h
[15] = Stability of the compound in 1 N HCl in water/0.1% Triton-X-100; format: physicochemical; settings: buffer
[16] = Stability of the compound in 1 N NaOH in water/0.1% Triton-X-100; format: physicochemical; settings: buffer
[17] = Stability of the compound in 0.1 M HCl in MeOH at 0.5 mg after 8 hrs by 1H-NMR spectroscopy; format: physicochemical
[18] = Stability of the compound in acetone irradiated with UV light at 1 mg after 2 to 72 hrs by 1H-NMR spectroscopy; format: physicochemical
[19] = Stability of the compound in 0.1 M NaOH in MeOH at 0.5 mg after 14 hrs by 1H-NMR spectroscopy; format: physicochemical

SMILES	Stability [1]	Drug metabolism [2]	Stability [4]	Stability [6]	Stability [7]	IC50 (HEK293)	IC50 (A549)	IC50 (LOX IMVI)	IC50 (L929)	Stability [15]	Stability [16]	Stability [17]	Stability [18]	Stability [19]	other results
CC(=CC(/C)=C/C=C/C(C)=C/[C@H](O)[C@@H](O)C[C@H](C)O)/C=C/C(=O)O[C@H]1CCCC(=O)O[C@@H]([C@@H](C)C/C(C)=C/[C@@H](C)[C@H](O)C[C@@H](C)O)C/C=C(\C)C[C@@H]1C (mixture of isomers)	Stable	Metabolite_Detected	Stable	Stable	Stable	3.2 nM	0.77 nM	6.9 nM	13 nM	Stable	Stable				degraded at 8 h [3]: 80%; degraded at 14 h [5]: 90%; Stability [8]: Stable; degraded at 240 h [9]: 20 to 30%; degraded at 26298 h [10]: 20%; solubility [11]: Insoluble; solubility [12]: Soluble; Drug metabolism [13]: Metabolite_Detected; Drug metabolism [14]: Metabolite_Detected
CC(/C=C/C(=O)O[C@H]1CCCC(=O)O[C@@H]([C@@H](C)C/C(C)=C/[C@@H](C)[C@H](O)C[C@@H](C)O)C/C=C(\C)C[C@@H]1C)=C\[C@H](C)C/C=C/C(C)=C/[C@H](O)[C@@H](O)C[C@H](C)O	Stable	Metabolite_Notdetected	Stable	Stable	Stable	83 nM	400 nM	120 nM	63 nM	Stable	Stable	Stable	Stable	Stable	
CC(/C=C/C(=O)O[C@H]1CCCC(=O)O[C@@H]([C@@H](C)C/C(C)=C/[C@@H](C)[C@H](O)C[C@@H](C)O)C/C=C(\C)C[C@@H]1C)=C\[C@@H](C)C/C=C/C(C)=C/[C@H](O)[C@@H](O)C[C@H](C)O	Stable	Metabolite_Notdetected	Stable	Stable	Stable	3 nM	77 nM	29 nM	53 nM	Stable	Stable	Stable	Stable	Stable	
